# Assay results as given in patent US9469650B2, “Melampomagnolide B derivatives” (BOARD OF TRUSTEES OF THE UNIVERSITY OF ARKANSAS, priority 2013, dated 2016).
# How the values were obtained:
# [1] = test system: MDA-MB-435; experiment: panel of 60 human tumor cell lines, growth inhibition (Melanoma); details: MDA-MB-435
# [2] = test system: SNB-75; experiment: panel of 60 human tumor cell lines, growth inhibition (CNS Cancer); details: SNB-75
# [3] = test system: NCI/ADR-RES; experiment: panel of 60 human tumor cell lines, growth inhibition (Ovarian Cancer)
# [4] = test system: SN12C; experiment: panel of 60 human tumor cell lines, growth inhibition (Renal Cancer)
# [5] = test system: COLO 205; experiment: panel of 60 human tumor cell lines, growth inhibition (Colon Cancer); details: COLO 205
# [6] = test system: SF-295; experiment: panel of 60 human tumor cell lines, growth inhibition (CNS Cancer); details: SF-295
# [7] = test system: HCT-116; experiment: panel of 60 human tumor cell lines, growth inhibition (Colon Cancer); details: HCT-116
# [8] = test system: SR; experiment: panel of 60 human tumor cell lines, growth inhibition (Leukemia)
# [9] = test system: SK-MEL-28; experiment: panel of 60 human tumor cell lines, growth inhibition (Melanoma); details: SK-MEL-28
# [10] = test system: ACHN; experiment: panel of 60 human tumor cell lines, growth inhibition (Renal Cancer)
# [11] = test system: UACC-62; experiment: panel of 60 human tumor cell lines, growth inhibition (Melanoma); details: UACC-62
# [12] = test system: SF-539; experiment: panel of 60 human tumor cell lines, growth inhibition (CNS Cancer); details: SF-539
# [13] = test system: NCI-H322M; experiment: panel of 60 human tumor cell lines, growth inhibition (Non-Small Cell Lung Cancer)
# [14] = test system: BT-549; experiment: panel of 60 human tumor cell lines, growth inhibition (Breast Cancer)
# [15] = test system: RXF 393; experiment: panel of 60 human tumor cell lines, growth inhibition (Renal Cancer); details: RXF 393
# [16] = test system: HCC-2998; experiment: panel of 60 human tumor cell lines, growth inhibition (Colon Cancer); details: HCC-2998
# [17] = test system: KM12; experiment: as above; details: KM12
# [18] = test system: UO-31; experiment: panel of 60 human tumor cell lines, growth inhibition (Renal Cancer); details: UO-31
# [19] = test system: SNB-19; experiment: panel of 60 human tumor cell lines, growth inhibition (CNS Cancer); details: SNB-19
smiles,measurement,setting,value
C=C1C(=O)O[C@H]2[C@H]1CC/C(COC(=O)NCCN1CCCCC1)=C\CC[C@@]1(C)O[C@@H]21 [JVM 2-13],GI50,[1],4.13 µM
same,TGI,[1],16.7 µM
same,Percent Growth,[1]; Log10 Concentration −4.0,−93%
same,Percent Growth,[1]; Log10 Concentration −5.0,27%
same,Percent Growth,[1]; Log10 Concentration −6.0,87%
same,Percent Growth,[1]; Log10 Concentration −7.0,97%
same,Percent Growth,[1]; Log10 Concentration −8.0,95%
same,GI50,[2],10.4 µM
same,TGI,[2],2.256−5 M
same,Percent Growth,[2]; Log10 Concentration −4.0,−96%
same,Percent Growth,[2]; Log10 Concentration −5.0,52%
same,Percent Growth,[2]; Log10 Concentration −6.0,73%
same,Percent Growth,[2]; Log10 Concentration −7.0,75%
same,Percent Growth,[2]; Log10 Concentration −8.0,75%
same,GI50,[3],31.2 µM
same,TGI,[3],>100 µM
same,Percent Growth,[3]; Log10 Concentration −4.0,4%
same,Percent Growth,[3]; Log10 Concentration −5.0,95%
same,Percent Growth,[3]; Log10 Concentration −6.0,103%
same,Percent Growth,[3]; Log10 Concentration −7.0,107%
same,Percent Growth,[3]; Log10 Concentration −8.0,103%
same,GI50,[4],3.75 µM
same,TGI,[4],16.2 µM
same,Percent Growth,[4]; Log10 Concentration −4.0,−71%
same,Percent Growth,[4]; Log10 Concentration −5.0,19%
same,Percent Growth,[4]; Log10 Concentration −6.0,92%
same,Percent Growth,[4]; Log10 Concentration −7.0,94%
same,Percent Growth,[4]; Log10 Concentration −8.0,97%
same,GI50,[5],1.79 µM
same,TGI,[5],1.73 µM
same,Percent Growth,[5]; Log10 Concentration −4.0,−75%
same,Percent Growth,[5]; Log10 Concentration −5.0,−67%
same,Percent Growth,[5]; Log10 Concentration −6.0,90%
same,Percent Growth,[5]; Log10 Concentration −7.0,101%
same,Percent Growth,[5]; Log10 Concentration −8.0,92%
same,GI50,[6],50.8 µM
same,TGI,[6],>100 µM
same,Percent Growth,[6]; Log10 Concentration −4.0,32%
same,Percent Growth,[6]; Log10 Concentration −5.0,94%
same,Percent Growth,[6]; Log10 Concentration −6.0,96%
same,Percent Growth,[6]; Log10 Concentration −7.0,95%
same,Percent Growth,[6]; Log10 Concentration −8.0,90%
same,GI50,[7],2.72 µM
same,TGI,[7],11.4 µM
same,Percent Growth,[7]; Log10 Concentration −4.0,−92%
same,Percent Growth,[7]; Log10 Concentration −5.0,5%
same,Percent Growth,[7]; Log10 Concentration −6.0,84%
same,Percent Growth,[7]; Log10 Concentration −7.0,96%
same,Percent Growth,[7]; Log10 Concentration −8.0,95%
same,CC50,[7]; read-out: LC50,37 µM
same,TGI,[8],15.4 µM
same,Percent Growth,[8]; Log10 Concentration −4.0,−47%
same,Percent Growth,[8]; Log10 Concentration −5.0,11%
same,Percent Growth,[8]; Log10 Concentration −6.0,75%
same,Percent Growth,[8]; Log10 Concentration −7.0,95%
same,Percent Growth,[8]; Log10 Concentration −8.0,118%
same,GI50,[9],3.35 µM
same,TGI,[9],14 µM
same,Percent Growth,[9]; Log10 Concentration −4.0,−81%
same,Percent Growth,[9]; Log10 Concentration −5.0,14%
same,Percent Growth,[9]; Log10 Concentration −6.0,90%
same,Percent Growth,[9]; Log10 Concentration −7.0,100%
same,Percent Growth,[9]; Log10 Concentration −8.0,98%
same,GI50,[10],2.76 µM
same,TGI,[10],12.3 µM
same,Percent Growth,[10]; Log10 Concentration −4.0,−80%
same,Percent Growth,[10]; Log10 Concentration −5.0,8%
same,Percent Growth,[10]; Log10 Concentration −6.0,83%
same,Percent Growth,[10]; Log10 Concentration −7.0,97%
same,Percent Growth,[10]; Log10 Concentration −8.0,94%
same,GI50,[11],4.86 µM
same,TGI,[11],18.9 µM
same,Percent Growth,[11]; Log10 Concentration −4.0,−85%
same,Percent Growth,[11]; Log10 Concentration −5.0,33%
same,Percent Growth,[11]; Log10 Concentration −6.0,88%
same,Percent Growth,[11]; Log10 Concentration −7.0,95%
same,Percent Growth,[11]; Log10 Concentration −8.0,95%
same,GI50,[12],3.23 µM
same,TGI,[12],13.1 µM
same,Percent Growth,[12]; Log10 Concentration −4.0,−78%
same,Percent Growth,[12]; Log10 Concentration −5.0,10%
same,Percent Growth,[12]; Log10 Concentration −6.0,91%
same,Percent Growth,[12]; Log10 Concentration −7.0,91%
same,Percent Growth,[12]; Log10 Concentration −8.0,92%
same,GI50,[13],17.4 µM
same,Percent Growth,[13]; Log10 Concentration −4.0,−89%
same,Percent Growth,[13]; Log10 Concentration −5.0,94%
same,Percent Growth,[13]; Log10 Concentration −6.0,106%
same,Percent Growth,[13]; Log10 Concentration −7.0,112%
same,Percent Growth,[13]; Log10 Concentration −8.0,105%
same,TGI,[14],18.3 µM
same,Percent Growth,"[14]; 81-549, Log10 Concentration −4.0",−96%
same,Percent Growth,"[14]; 81-549, Log10 Concentration −5.0",34%
same,Percent Growth,"[14]; 81-549, Log10 Concentration −6.0",89%
same,Percent Growth,"[14]; 81-549, Log10 Concentration −7.0",88%
same,Percent Growth,"[14]; 81-549, Log10 Concentration −8.0",83%
same,GI50,[15],2.11 µM
same,TGI,[15],8.93 µM
same,Percent Growth,[15]; Log10 Concentration −4.0,−84%
same,Percent Growth,[15]; Log10 Concentration −5.0,−4%
same,Percent Growth,[15]; Log10 Concentration −6.0,76%
same,Percent Growth,[15]; Log10 Concentration −7.0,86%
same,Percent Growth,[15]; Log10 Concentration −8.0,98%
same,GI50,[16],18.5 µM
same,TGI,[16],36 µM
same,Percent Growth,[16]; Log10 Concentration −4.0,−77%
same,Percent Growth,[16]; Log10 Concentration −5.0,96%
same,Percent Growth,[16]; Log10 Concentration −6.0,104%
same,Percent Growth,[16]; Log10 Concentration −7.0,105%
same,Percent Growth,[16]; Log10 Concentration −8.0,99%
same,GI50,[17],14.4 µM
same,TGI,[17],29.8 µM
same,Percent Growth,[17]; Log10 Concentration −4.0,−83%
same,Percent Growth,[17]; Log10 Concentration −5.0,75%
same,Percent Growth,[17]; Log10 Concentration −6.0,101%
same,Percent Growth,[17]; Log10 Concentration −7.0,106%
same,Percent Growth,[17]; Log10 Concentration −8.0,106%
same,GI50,[18],3.34 µM
same,TGI,[18],16.1 µM
same,Percent Growth,[18]; Log10 Concentration −4.0,−81%
same,Percent Growth,[18]; Log10 Concentration −5.0,21%
same,Percent Growth,[18]; Log10 Concentration −6.0,82%
same,Percent Growth,[18]; Log10 Concentration −7.0,91%
same,Percent Growth,[18]; Log10 Concentration −8.0,91%
same,GI50,[19],16.8 µM
same,TGI,[19],15.1 µM
same,Percent Growth,[19]; Log10 Concentration −4.0,−71%
same,Percent Growth,[19]; Log10 Concentration −5.0,85%
same,Percent Growth,[19]; Log10 Concentration −6.0,96%
same,Percent Growth,[19]; Log10 Concentration −7.0,97%
same,Percent Growth,[19]; Log10 Concentration −8.0,98%
